Our source for the IC50 values is patent US9023865B2, “Compounds that are ERK inhibitors” (Merck Sharp & Dohme Corp., priority 2011, dated 2015).

The assay addresses Active Human ERK2 (hERK2) (Homo sapiens (Human), UniProt P28482). Nature of the assay: Active Human ERK2 (hERK2) Activity Assay (IMAP-FP). The format is biochemical. The procedure, abridged: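 Phosphorylation by activated human ERK2 (0.5 nM) at 30 μM ATP, peptide substrate 900 nM unlabeled with 80 nM labeled, proceeds 60 min. IMAP beads stop the reaction; after 60 min equilibration, product is measured by fluorescence polarization.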

The mark [1] stands for this setting: phosphorylated active hERK2, 30 μM ATP, average, read-out: ERK 2 Human average IC50.
The mark [2] stands for this setting: read-out: AERK2 IC50 (Active human ERK2 Activity Assay).

As usually defined, the IC50 is the concentration at which inhibition is half-maximal.

Where two headings read alike, the source gives them in different places.

Sequence of Active Human ERK2 (hERK2) (P28482 whole entry): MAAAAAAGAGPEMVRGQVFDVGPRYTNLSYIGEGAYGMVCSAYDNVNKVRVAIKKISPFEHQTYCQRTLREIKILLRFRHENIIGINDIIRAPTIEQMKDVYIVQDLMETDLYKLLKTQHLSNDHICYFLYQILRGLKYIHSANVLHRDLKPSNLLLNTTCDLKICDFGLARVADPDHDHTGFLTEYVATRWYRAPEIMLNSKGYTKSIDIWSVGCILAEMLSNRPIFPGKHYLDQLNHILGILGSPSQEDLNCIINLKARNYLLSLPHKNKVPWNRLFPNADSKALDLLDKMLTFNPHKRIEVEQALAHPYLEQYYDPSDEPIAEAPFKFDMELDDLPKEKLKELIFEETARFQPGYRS

Take `COCCN(Cc1cccnc1)C(=O)Nc1cc2[nH]nc(-c3ccnc(C)c3)c2cn1` [Example 50, 1-(2-methoxyethyl)-3-[3-(2-methylpyridin-4-yl)-1H-pyrazolo[4,3-c]pyridin-6-yl]-1-(pyridin-3-ylmethyl)urea]: the IC50 under setting [1] was found to be 899 nM.
The same measure, in the same setting: the same measure for `C[C@@H](NC(=O)Nc1cc2[nH]nc(C3CC3(F)F)c2cn1)c1ccccc1` (stereo partly shown) [Example 164]: 7.71 nM; for `Cc1cc(-c2n[nH]c3cc(NC(=O)N[C@@H]4CN(CC(F)(F)F)C[C@H]4c4ccccc4)ncc23)ccn1` [Example 330]: 3.06 nM; for `Cc1cc(-c2n[nH]c3cc(NC(=O)N[C@H]4CN(C)C[C@@H]4c4ccccc4F)ncc23)ccn1` [Example 185]: 37.3 nM.
Regarding `Cc1cc(-c2n[nH]c3cc(NC(=O)NC(c4ccc(F)cc4)C4CCCO4)ncc23)ccn1` (stereo not shown) [Example 238], under setting [1], the IC50 worked out at 0.935 nM.
Take `Cc1cc(-c2n[nH]c3cc(NC(=O)NC4(c5ccccn5)CCCC4)ncc23)ccn1` [Example 358]: under setting [1], the IC50 stood at 137 nM.
Same read-out and setting: the same measure for `Cc1cc(-c2n[nH]c3cc(NC(=O)NC(C)c4ncccc4C)ncc23)ccn1` (stereo not shown) [Example 349]: 6.57 nM.
With `O=C(NCc1ccno1)Nc1cc2[nH]nc(-c3ccc(F)cc3)c2cn1` [Example 222], the IC50 under setting [1] is 0.995 nM.
On to `CCO[C@@H]1CN(C)C[C@H]1NC(=O)Nc1cc2[nH]nc(-c3ccc(F)cc3)c2cn1` [Example 320], for which, under setting [1], the IC50 was 25.4 nM.
On to `Cc1cc(-c2n[nH]c3cc(NC(=O)N[C@H]4CN(C)C[C@@H]4c4ccccc4)ncc23)ccn1` [Example 182], for which, under setting [1], the IC50 worked out at 18.8 nM.
As to `COc1cc(CNC(=O)Nc2cc3[nH]nc(-c4ccnc(C)c4)c3cn2)on1` [Example 472], the IC50 under setting [1] was determined as 11.1 nM.
In the case of `Cc1cc(-c2n[nH]c3cc(NC(=O)NCc4cscn4)ncc23)ccn1` [Example 432], under setting [1], the IC50 came out at 0.745 nM.
As for `CO[C@H]1CN(C)C[C@@H]1NC(=O)Nc1cc2[nH]nc(-c3ccc(F)cc3)c2cn1` [Example 317], the IC50 under setting [1] came to 1.13 nM.
Still for that read-out and setting: under `Cc1cc(-c2n[nH]c3cc(NC(=O)NCc4cccnn4)ncc23)ccn1` [Example 446] stands 3.3 nM; under `Cc1cc(-c2n[nH]c3cc(NC(=O)N[C@H](c4ccccc4)[C@@H]4CCCO4)ncc23)ccn1` [Example 552], 23.8 nM.
Regarding `Cc1cc(-c2n[nH]c3cc(NC(=O)NC4(c5ccc(Cl)cc5)CCOCC4)ncc23)ccn1` [Example 77, 1-[4-(4-chlorophenyl)tetrahydro-2H-pyran-4-yl]-3-[3-(2-methylpyridin-4-yl)-1H-pyrazolo[4,3-c]pyridin-6-yl]urea], the IC50 under setting [1] was found to be 15.1 nM.
On the same count and under the same terms, the same measure for `CC(CN(C)C)NC(=O)Nc1cc2[nH]nc(-c3ccc(F)cc3)c2cn1` (stereo not shown) [Example 228]: 70.3 nM.
In the case of `C[C@@H](NC(=O)Nc1cc2[nH]nc(-c3ccc4nn(C)cc4c3)c2cn1)c1ccc(Cl)cc1` [Example 65, 1-[(1R)-1-(4-chlorophenyl)ethyl]-3-[3-(2-methyl-2H-indazol-5-yl)-1H-pyrazolo[4,3-c]pyridin-6-yl]urea], the IC50 was 0.562 nM under setting [1] and 0.2 to 1.7 nM under setting [2].
As to `Cc1cc(-c2n[nH]c3cc(NC(=O)N[C@H](C)c4ccccc4)ncc23)cnn1` [Example 91, 1-[3-(6-methylpyridazin-4-yl)-1H-pyrazolo[4,3-c]pyridin-6-yl]-3-[(1R)-1-phenylethyl]urea], the IC50 by setting is: under setting [1], 0.878 nM; under setting [2], 0.2 to 1.7 nM.
Turning to `C[C@@H](NC(=O)Nc1cc2[nH]nc(C(F)F)c2cn1)c1ccc(F)cc1` [Example 669], the IC50 under setting [1] is 21.6 nM.
On the same count and under the same terms, under `COc1ccc(C2(NC(=O)Nc3cc4[nH]nc(-c5ccnc(C)c5)c4cn3)CC2)cc1` [Example 359] stands 9.27 nM; under `Cc1cc(-c2n[nH]c3cc(NC(=O)N[C@H](COCC4CC4)c4ccccc4)ncc23)no1` [Example 699], 23.5 nM; under `Cc1cc(-c2n[nH]c3cc(NC(=O)NCc4ncccc4C)ncc23)ccn1` [Example 480], 1.22 nM.
As to `CCCNC(=O)Nc1cc2[nH]nc(-c3ccnc(C)c3)c2cn1` [Example 241], the IC50 under setting [1] came to 2.73 nM.
In the case of `Cc1cc(-c2n[nH]c3cc(NC(=O)NC4(C#N)CC4)ncc23)ccn1` [Example 201], the IC50 under setting [1] worked out at 92 nM.
On to `Cc1cc(-c2n[nH]c3cc(NC(=O)N[C@H](CO)c4ccc(F)cc4)ncc23)ccn1` [Example 346], for which the IC50 under setting [1] is 88.2 nM.
Turning to `Cc1cc(-c2n[nH]c3c(F)c(NC(=O)N[C@H](C)c4ccccc4)ncc23)ccn1` [Example 95, 1-[7-fluoro-3-(2-methylpyridin-4-yl)-1H-pyrazolo[4,3-c]pyridin-6-yl]-3-[(1R)-1-phenylethyl]urea], the concentration for half-maximal inhibition (IC50) is, setting by setting: under setting [1], 0.235 nM; under setting [2], 0.2 to 1.7 nM.
As for `COc1cc(F)ccc1CNC(=O)Nc1cc2[nH]nc(-c3ccnc(C)c3)c2cn1` [Example 520], the IC50 under setting [1] came out at 0.44 nM.
For the compound `C[C@@H](NC(=O)Nc1cc2[nH]nc(-c3cccc(Cl)c3)c2cn1)c1ccc(F)c(Cl)c1` [Example 76, 1-[(1R)-1-(3-chloro-4-fluorophenyl)ethyl]-3-[3-(3-chlorophenyl)-1H-pyrazolo[4,3-c]pyridin-6-yl]urea], the IC50 under setting [1] was determined as 56.1 nM.
In the case of `Cc1cc(-c2n[nH]c3cc(NC(=O)N[C@@H]4c5ccccc5C[C@H]4N(C)C)ncc23)ccn1` [Example 490], the IC50 under setting [1] turned out to be 11.3 nM.
Consider `O=C(NCc1ccc(F)cc1)Nc1cc2[nH]nc(C3CCC3)c2cn1` [Example 146], for which the IC50 under setting [1] turned out to be 12.9 nM.
On the same count and under the same terms, the same measure for `C[C@@H](NC(=O)Nc1cc2[nH]nc(C3CC3)c2cn1)c1ccc(Cl)cc1` [Example 150]: 10.4 nM.
Take `CCOCc1n[nH]c2cc(NC(=O)N[C@H](C)c3ccccc3)ncc12` [Example 620, 1-[3-(ethoxymethyl)-1H-pyrazolo[4,3-c]pyridin-6-yl]-3-[(1R)-1-phenylethyl]urea]: the IC50 under setting [1] is 138 nM.
Regarding `CC1=NOC(CNC(=O)Nc2cc3[nH]nc(-c4ccnc(C)c4)c3cn2)C1` (stereo not shown) [Example 191], the IC50 under setting [1] is 17.6 nM.
Consider `CCOc1ncccc1CNC(=O)Nc1cc2[nH]nc(-c3ccnc(C)c3)c2cn1` [Example 526], for which the IC50 under setting [1] was 0.546 nM.
With `COCC(NC(=O)Nc1cc2[nH]nc(-c3ccnc(C)c3)c2cn1)c1ccc(C(F)(F)F)cn1` (stereo not shown) [Example 240], the IC50 under setting [1] was determined as 24.2 nM.
For `CC[C@@H](NC(=O)Nc1cc2[nH]nc(-c3ccnc(C)c3)c2cn1)c1ccccn1` [Example 218], under setting [1], the IC50 amounted to 0.487 nM.
`Cc1cc(-c2n[nH]c3cc(NC(=O)NCc4nc(C)cs4)ncc23)ccn1` [Example 477]: under setting [1], the IC50 was 2.61 nM.
Same read-out and setting: under `C[C@@H](NC(=O)Nc1cc2[nH]nc(-c3ccc(OC(F)(F)F)cc3)c2cn1)c1ccccc1` [Example 674] stands 13.2 nM; under `C[C@@H](NC(=O)Nc1cc2[nH]nc(CC#N)c2cn1)c1ccccc1` [Example 559, (R)-1-(3-(cyanomethyl)-1H-pyrazolo[4,3-c]pyridin-6-yl)-3-(1-phenylethyl)urea], 14.5 nM.
On to `Cc1cc(-c2n[nH]c3cc(NC(=O)NC(c4cccnc4)C(F)F)ncc23)ccn1` (stereo not shown) [Example 509], for which the IC50 under setting [1] is 3.07 nM.
`Cc1cc(-c2n[nH]c3cc(NC(=O)NCc4csc(C)n4)ncc23)ccn1` [Example 43, 1-[3-(2-methylpyridin-4-yl)-1H-pyrazolo[4,3-c]pyridin-6-yl]-3-[(2-methyl-1,3-thiazol-4-yl)methyl]urea]: the IC50 reads like this: under setting [1], 0.934 nM; under setting [2], 0.2 to 1.7 nM.
Regarding `Cc1cc(-c2n[nH]c3cc(NC(=O)NC=C4CC4)ncc23)ccn1` [Example 38, 1-(cyclopropylidenemethyl)-3-[3-(2-methylpyridin-4-yl)-1H-pyrazolo[4,3-c]pyridin-6-yl]urea], the IC50 under setting [1] came out at 481 nM.
Regarding `C[C@@H](NC(=O)Nc1cc2[nH]nc(-c3ccc(=O)n(C)c3)c2cn1)c1ccc(F)cc1` [Example 71, 1-[(1R)-1-(4-fluorophenyl)ethyl]-3-[3-(1-methyl-6-oxo-1,6-dihydropyridin-3-yl)-1H-pyrazolo[4,3-c]pyridin-6-yl]urea], the IC50 is, setting by setting: under setting [1], 0.159 nM; under setting [2], 0.2 to 1.7 nM.
On to `Cc1cc(-c2n[nH]c3cc(NC(=O)NC4CCc5cccnc5C4)ncc23)ccn1` (stereo not shown) [Example 505], for which the IC50 under setting [1] is 0.865 nM.
On the same count and under the same terms, under `COCCNC(=O)Nc1cc2[nH]nc(-c3ccnc(C4CC4)c3)c2cn1` [Example 629] stands 1.5 nM; under `COc1cc(-c2n[nH]c3cc(NC(=O)N[C@H](C)c4ccc(F)cc4)ncc23)ccn1` [Example 310], 6.52 nM.
Regarding `Cc1cc(-c2n[nH]c3cc(NC(=O)N[C@@H](C)c4ccc(C#N)cc4)ncc23)ccn1` [Example 233], the IC50 under setting [1] turned out to be 42.5 nM.
In the case of `Cc1cc(-c2n[nH]c3cc(NC(=O)NCc4ccc5[nH]cnc5c4)ncc23)ccn1` [Example 368], the IC50 under setting [1] came to 2.79 nM.
As for `Cc1cc(-c2n[nH]c3cc(NC(=O)NCc4ccsc4)ncc23)ccn1` [Example 475], the IC50 under setting [1] is 0.385 nM.
Consider `Cc1cc(-c2n[nH]c3cc(NC(=O)NC(C)c4ccc(S(C)(=O)=O)cc4)ncc23)ccn1` (stereo not shown) [Example 376], for which the IC50 under setting [1] was determined as 0.582 nM.
As for `Cc1cc(-c2n[nH]c3cc(NC(=O)NC4CCNC4)ncc23)ccn1` (stereo not shown) [Example 579], under setting [1], the IC50 came out at 10.6 nM.
Regarding `C[C@@H](NC(=O)Nc1cc2[nH]nc(-c3ccc(-n4ccnn4)cc3)c2cn1)c1ccc(F)cc1` [Example 242, 1-[(1R)-1-(4-fluorophenyl)ethyl]-3-{3-[4-(1H-1,2,3-triazol-1-yl)phenyl]-1H-pyrazolo[4,3-c]pyridin-6-yl}urea], the IC50 under setting [1] is 5.54 nM.
As to `Cc1cc(-c2n[nH]c3cc(NC(=O)NCc4ncccc4F)ncc23)ccn1` [Example 447], under setting [1], the IC50 amounted to 2.62 nM.
On to `CC(C)Oc1ccc(-c2n[nH]c3cc(NC(=O)N[C@H](C)c4ccc(F)cc4)ncc23)cn1` [Example 250], for which the IC50 under setting [1] is 2.36 nM.
Take `Cc1cc(-c2n[nH]c3cc(NC(=O)N[C@H]4CN(C)C[C@@H]4c4ccccc4C)ncc23)ccn1` [Example 216, 1-((3R,4S)-1-methyl-4-(o-tolyl)pyrrolidin-3-yl)-3-(3-(2-methylpyridin-4-yl)-1H-pyrazolo[4,3-e]pyridin-6-yl)urea]: the IC50 under setting [1] is 66.3 nM.
